In patent publication US20110152112A1, “DIAGNOSIS AND TREATMENT OF REVERSE CHOLESTEROL TRANSPORT DEFICIENCY-RELATED DISEASES” (Artery Therapeutics, Inc., priority 2009, published 2011):

Test system: J774 mouse macrophages (foam-cells)
Assay: Lipid efflux from J774 macrophage foam-cells to media (nascent HDL, LC-MS/MS)
Type: cell-based
Protocol: Study 1: Isolation of Nascent HDL from Incubations of Macrophage Foam-Cells with AT5261 and apoA-I.
A commercial transformed macrophage cell-line, J774 (mouse), was used to evaluate lipid efflux responses to peptide ATI-5261 and ApoA-I. Macrophage foam-cells were prepared and exposed to lipid-free AT5261 peptide and ApoA-I, respectively; Nascent HDL products resulting from stimulation of cholesterol efflux were isolated and concentrated from conditioned medium and analyzed for lipid content.
Near confluent T175-flasks (30 total) of J774 mouse macrophages were incubated (2 days) with 0.1 mg/ml acetylated LDL in […] culture medium containing 1% FBS, to produce foam-cells. On the day of the experiment, cell monolayers were rinsed (3 times) with 20 ml/flask of HBSS, incubated 1 h with 0.2% BSA in serum-free RPMI-1640 medium, then rinsed (3 times) with serum-free RPMI. Rinsed cells were then exposed (20 ml/flask) to either apoA-I (15 flasks) or ATI-5261 (15 flasks), at a final concentration of 10 microgram/ml serum free RPMI. Following 20 h, conditioned medium was recovered from flasks, pooled within groups, and filtered (0.2 mμ). The pooled medium (˜300 ml) was subsequently concentrated to 5 ml using an Amicon stir-cell (10 K membrane) and density adjusted to 1.21 g/ml with solid NaBr. Nascent HDL was isolated by ultracentrifugation (120K, 5 h 20 minutes, 10° C.) using a TL-120 centrifuge, samples dialyzed to saline (pH=7.4) and filter sterilized (0.2 nip, Nalgene capsules). Isolated material was used for detailed MS of PL subclasses, subjected to non-denaturing gradient gel electrophoresis and protein lipid ratios determined by 280 abs. and commercial kits.
Samples were kept at −80° C. until extraction. Samples were allowed to thaw on ice and a small aliquot of each sample was transferred into siliconized glass tubes followed by addition of ultrapure water. Samples were spiked with either a mixture of C17-based ceramide, sphingosine, sphingosine-1-phosphate and sphingomyelin (10 ng of each as internal sphingolipid standards) or ([…] of deuterated 16:0/16:0 PC as internal phosphatidylcholine standard). Samples were subjected to a Bligh and Dyer extraction (Bligh, E. G., Dryer, W. J. (1959) Can J Biochem physiol 37, 911-917). Lipid extracts were dried under stream of nitrogen at room temperature. The dried lipid extracts were then reconstituted in […] ethanol/formic acid (99.8/0.2) and kept at 4° C. until LC-MS/MS analysis. Extracts were injected onto a reverse phase C18 HPLC Column to separate and resolve the various lipids. Phosphatidylcholine and sphingolipids were eluted off the column and analyzed on a triple quadrupole mass spectrometer Sciex API 5500. The data acquisition was performed in a targeted MRM (MS/MS) mode using lipid specific precursor ion to product ion (or parent to daughter ion) mass transitions resulting in highly sensitive and specific quantitative data. The resulting data was processed using Applied Biosystems Analyst 1.4.2 software.

ApoA-I: apolipoprotein A-I, natures strongest effluxer, lipid-free comparator
Cholesterol: Phospholipid molar ratio mobilized to media (10 microgram/ml, 20 h, (S.D.)): 2.89 (S.D. 0.68)
PC mobilized to media (LC-MS/MS, 10 microgram/ml, 20 h): 19
LPC mobilized to media (LC-MS/MS, n=2): 40
LPC media concentrations (all LPC): increased
phospholipid (PL) media concentrations (all PL): increased
type of LPC mobilized (values adjusted for the 2-fold difference): more of longer chain and more saturated LPCs
